# From patent publication EP2450046B1, “A MEDICINAL COMPOSITION FOR THE TREATMENT OF BRONCHITIS AND PREPARATION THEREOF” (Hebei Yiling Medicine Research Institute Co., Ltd., priority 2009, dated 2011)
# Read-outs that look alike come from different tables or passages of the source.
# Assays:
# [1] = test system: xylene-induced ear swelling in mice; assay: Effect on xylene-induced ear swelling in mice; type: in vivo, Kunming male mice; details: Aspirin 0.2 g/kg i.g. q.d. 3 days; weight of right minus left ear piece; n=10
# From the text: Sixty Kunming male mice of Grade II with the mean body weight of 19.77 ± 0.91 g, provided by the breeding farm of the Institute of Laboratory Animal Science, Chinese Academy of Medical Sciences, License number: SCXK (Jing) 2000-0006. • (1) The present medication to be tested, 6.25 g crude drugs/g, provided by […] Pharmaceutical Co. […] SFDA Approval No. Z-11; Lot number of the product: 060112; valid until December 2007. • (3) Aspirin enteric-coated tablet as a western medicine control, 0.3 g/tablet, produced by Yantai the Second Pharmaceutical Factory), lot number: 011102. The above-described medications were formulated with distilled water into the required concentrations in the experiment. Sixty healthy mice were randomly assigned into the following six groups with 10 animals per group: […] (2) the Aspirin group (0.2 g/kg); (3) the […] group (2 g crude drugs/kg); (4) the low dosage group of the present medication (L-dosage group, 3g crude drugs/kg); (5) the medium dosage group of the present medication (M-dosage group, 6g crude drugs/kg); (6)the high dosage group of the present medication (H-dosage group, 12g crude drugs/kg). […] Fifteen minutes later, the animal was sacrificed by dislocation. […] The degree of ear swelling for each mouse was calculated by subtraction of the weight of the left piece from that of the right piece. […]
# [2] = test system: carrageenan-induced swelling of rat's footpad; assay: Effect on carrageenan-induced swelling of rat's footpad; type: in vivo, Wistar male rats; details: for Foot volume after inflammation / Foot volume, Difference / Swelling rate / inhibition at 150 mg/kg: Aspirin 0.15 g/kg i.g. q.d. 3 days; for inhibition at 150 mg/kg: Rattus norvegicus, po, read-out: Inhibition rate
# Method: • (1) The present medication to be tested, 6.25g crude drugs/g, provided by […] Pharmaceutical Co. […] SFDA Approval No. Z-11; […] The above-described medications were prepared into the required concentrations with distilled water in the experiment. • (4) Carrageenan, from SIGMA, lot number: 117H0151, prepared into required concentrations for the experiment. Sixty while Wistar male rats of Grade I with the mean body weight of 157.05 ± 8.49 g, provided by Institute of Laboratory Animal Science, Chinese Academy of Medical Sciences, License number: […] The sixty healthy rats were randomly assigned into the following six groups: (1) the blank control group administered with distilled water (10 ml/kg); […] (3) the […] group (1.5 g crude drugs/kg); (4) the low dosage group of the present medication (L-dosage group, 2 g crude drugs/kg); (5) the medium dosage group of the present medication (M-dosage group, 4 g crude drugs/kg); (6)the high dosage group of the present medication (H-dosage group, 8 g crude drugs/kg). The volume of the left hind foot of each animal determined by capillary amplification method was used as the value prior to administration. […] Comparisons among the groups were performed on the difference between the left foot volumes before and after inflammation by t-test.
# [3] = test system: tampon-induced granuloma in rats; assay: Effect on small tampon-induced granuloma in rats; type: in vivo; details: Aspirin 0.15 g/kg i.g. q.d. 7 days; n=10
# From the text: Sixty Wistar […] of Grade II evenly composed of males and females with the mean body weight of 132.37 ± 6.31 g, provided by the breeding farm of the Institute of Laboratory Animal Science, Chinese […] of Medical Sciences, and License number: SCXK (Jing) 2000-0006. • (1) The present medication to be tested, 6.25 g crude drugs/g, provided by […] Pharmaceutical Co. […] No. Z-11; Lot number: 060112. • (3) Aspirin Enteric-coated Tablet as a western medicine control, 0.3 g/tablet, produced by Yantai the Second Pharmaceutical Factory), lot number: 051102. The medication was prepared to required concentrations with distilled water in the experiment. • (4) Ampicillin Sodium Injection (ASI), 0.5 g/bottle, Produced by North China Pharmaceutical Co., Ltd. lot number: F0111207. […] The average wet and dry weights of the post-inflammation granuloma for each of the groups were calculated, from which the original weight of the cotton ball had been subtracted, and were compared among the groups by t-test.
smiles,measurement,setting,value
CC(=O)Oc1ccccc1C(=O)O [Aspirin],Swelling rate,[1],3.50 ± 0.71 mg
same,Foot volume after inflammation,[2]; 0.5h,1.19 ± 0.04 mL
same,"Foot volume, Difference",[2]; 0.5h,0.21 ± 0.05 mL
same,Swelling rate,[2]; 0.5h,21.4±5.49 %
same,Foot volume after inflammation,[2]; 1h,1.23 ± 0.04 mL
same,"Foot volume, Difference",[2]; 1h,0.25 ± 0.03 mL
same,Swelling rate,[2]; 1h,25.4±3.87 %
same,Foot volume after inflammation,[2]; 2h,1.27 ± 0.02 mL
same,"Foot volume, Difference",[2]; 2h,0.29 ± 0.03 mL
same,Swelling rate,[2]; 2h,29.7±4.00 %
same,Foot volume after inflammation,[2]; 4h,1.30 ± 0.04 mL
same,"Foot volume, Difference",[2]; 4h,0.32 ± 0.04 mL
same,Swelling rate,[2]; 4h,32.80±4.78 %
same,Foot volume after inflammation,[2]; 6h,1.24 ± 0.03 mL
same,"Foot volume, Difference",[2]; 6h,0.26 ± 0.04 mL
same,Swelling rate,[2]; 6h,26.26±3.95 %
same,Foot volume before inflammation,"[2]; Aspirin group 0.15 g/kg, baseline, n=10",0.98 ± 0.03 mL
same,inhibition at 150 mg/kg,[2]; 0.5h,41.5%
same,inhibition at 150 mg/kg,[2]; 1h,41.2%
same,inhibition at 150 mg/kg,[2]; 2h,38.6%
same,inhibition at 150 mg/kg,[2]; 4h,32.1%
same,inhibition at 150 mg/kg,[2]; 6h,45.6%
same,Dry weight of granuloma,[3],99.20 ± 10.16 mg
same,Wet weight of granuloma,[3],457.85 ± 50.01 mg
